{"source": "patent US12565680B2", "about": "“Cancer neoantigens and their utilities in cancer vaccines and TCR-based cancer immunotherapy” (THE METHODIST HOSPITAL SYSTEM, priority 2018, dated 2026)", "system": "135TIL", "assay": "TCR β CDR3 repertoire analysis", "design": "species or system human", "settings": "TCRβ CDR3 profiling", "excerpt": "To address this issue, PCDHB16 neoantigen-specific CD4^+ T cells were isolated by FACS sorting of PCDHB16-neoantigen T cells from freshly generated bulk T cells after stimulated PCDHB16 neoepitope peptide-pulsed 135EBV-B cells. Using the similar approach, MPG-specific CD8+ T cells were also purified from freshly generated bulk T cells after stimulated MPG neoepitope peptide-pulsed 135EBV-B cells. Genomic DNAs were isolated from the two purified neoantigen-specific T cell populations, as well as the parental bulk T cells, and used as templates for TCR β-chain CDR3 repertoire amplification. […] After the amplicons (from PCDHB16-, MPG-specific T cells and bulk 135TIL) were subjected to deep-sequenced via next-generation sequencing (reads>100,000 per sample), followed by bioinformatic analysis and TCR repertoire alignment. […] The relative TCR sequence frequencies that were identical to those in PCDHB16-specific T cells and MPG-specific T cells were determined in total 135TIL cell population (FIG. 10F). […]\nCytokine Secretion Assay-Detection Kit (MACS Miltenyi Biotec) was used in cell-surface IFN-γ staining based on a commercial protocol. […] Finally cells were washed with cold buffer and ready for flow cytometric analysis. […]", "data": [{"sequence": "ENSPLGTEFPLNYALDLDVGSNNVQ [PCDHB16, immunodominant MHC-II neoantigen of patient #135]", "values": [{"measurement": "neoantigen-specific TCRs in the total 135TIL TCRs", "result": 36, "unit": "%"}]}]}
